From patent US9527889B2, “RFamide-related peptides and methods thereof” (THE REGENTS OF THE UNIVERSITY OF MICHIGAN, priority 2010, dated 2016)
Entries after “also recorded” stand apart in the source; their conditions may differ. Residues, ends and D or L forms follow the SMILES beside them. No end group written: not given here.

Assays:
[1] = test system: isolated adult rabbit cardiac myocytes; assay: Sarcomere shortening in isolated adult rabbit cardiac myocytes; format: cell-based; conditions: pacing at 0.5 Hz and 1 Hz
Method: FIG. 7. A. Representative sarcomere shortening traces in isolated adult rabbit cardiac myocytes paced at 0.5 Hz. A signal-averaged recording from 10 traces was made in myocytes 1 day after isolation (n=3). Recordings show shortening before and 15 minutes after initiating perfusion with 10^−10 M hRFRP-1 or media (control) at 37° C.
Adult rat and rabbit ventricular cardiac myocytes were isolated as previously described (Westfall, M. V. Et al. (1997), Westfall, M. V. and Borton, A. R. (2003)). Hearts from Sprague-Dawley rats and New Zealand white rabbits were perfused and enzymatically digested to isolate myocytes; the protocol was approved by The University of Michigan University Committee on Use and Care of Animals (UCUCA) in accordance with university and federal regulatory guidelines. […]
Sarcomere shortening was detected using a video-based detection system (IonOptix, MA, USA) as described earlier (Westfall, M. V. and Borton, A. R. (2003)). […] Signal averaged data were analyzed to determine resting sarcomere length, shortening amplitude (peak shortening), shortening rate (departure velocity), and re-lengthening rate (return velocity), as previously described (Westfall, M. V. Et al. (1997), Westfall, M. V. and Borton, A. R. (2003)), in 7-20 myocytes from 3-4 rats for each peptide concentration, bis-1, and media.

[2] = test system: isolated adult rat cardiac myocytes; format: cell-based; conditions: peptides at 10^−8M or 10^−7M; peak shortening, departure and return velocity
Source text: Adult rat and rabbit ventricular cardiac myocytes were isolated as previously described (Westfall, M. V. Et al. (1997), Westfall, M. V. and Borton, A. R. (2003)). Hearts from Sprague-Dawley rats and New Zealand white rabbits were perfused and enzymatically digested to isolate myocytes; the protocol was approved by The University of Michigan University Committee on Use and Care of Animals (UCUCA) in accordance with university and federal regulatory guidelines. Aliquots of isolated ventricular myocytes were plated on laminin-coated glass coverslips in serum-containing Dulbecco's Modified Eagle Media (Invitrogen, CA, US) supplemented with 5% fetal bovine serum, and 50 U/ml penicillin and 50 μg/ml streptomycin (pen/strep; Sigma-Aldrich, MO, US). Two hours later, media was replaced with serum-free M199 (Invitrogen) supplemented with 1.8 mM Ca^2+, 10 mM HEPES, 10 mM glutathione, and pen/strep. Rat myocytes were transferred to a stimulation chamber and electrically paced the day after isolation (Zornik, E. Et al. (1999), Westfall, M. V. Et al. (1997)). Media was changed daily for all myocyte preparations.
Sarcomere shortening was detected using a video-based detection system (IonOptix, MA, USA) as described earlier (Westfall, M. V. and Borton, A. R. (2003)). Rat myocytes were paced at 0.2 Hz and rabbit myocytes were paced at 0.5 Hz or 1.0 Hz for these studies. Recordings were made prior to application of each peptide concentration, the protein kinase C (PKC) inhibitor bisindolylmaleimide-1, (bis-1; CalBiochem/EMD, NJ, US), or media only (control, C) and at 1, 3, 5, 10 and 15 minutes after application of peptide, bis-1, or media. Signal averaged data were analyzed to determine resting sarcomere length, shortening amplitude (peak shortening), shortening rate (departure velocity), and re-lengthening rate (return velocity), as previously described (Westfall, M. V. Et al. (1997), Westfall, M. V. and Borton, A. R. (2003)), in 7-20 myocytes from 3-4 rats for each peptide concentration, bis-1, and media.

mouse heart = assay: Echocardiography in mice after tail-vein injection; format: in vivo
Method: Echocardiograms were performed as previously described (Boluyl, M. O. Et al. (2004)) according to the recommendations of the American Society of Echocardiography. All echocardiography was performed by one registered echocardiographer. Female C57BL/6 mice were weighed to accurately calculate the amount of peptide delivered per kilogram body weight (kg bw). Animal use for echocardiography was approved by The University of Michigan UCUCA in accordance with university and federal regulatory guidelines. Physiological saline or peptide was intravenously delivered via tail-vein injections to a total volume of 150 μl to achieve 5 μmols or 500 ηmols hRFRP-1/kg bw. Each animal was used only once for an injectant, either physiological saline or peptide (n=4-5). […] Heart rate along with left ventricular end-systolic and end-diastolic dimensions were measured from the two-dimensional sector scans obtained from the parasternal long axis and apical four chamber views using the conventions of the American Society of Echocardiography. […] Left ventricular volumes were measured at end systole (Vols) and end diastole (Vold) and used to calculate stroke volume (SV=Vold−Vols) and ejection fraction (EF %=endocardial SV/endocardial Vold×100). Cardiac output (CO=endocardial SV×heart rate) was calculated from stroke volume and heart rate. […]

Row | Compound | arrhythmic beats and after-contractions [1] | character relative to hRFRP-1 on myocyte contractile function (agonist, antagonist, reverse agonist; in words) [2] | effect on the hRFRP-1-induced decrease of contractile performance in vivo (mouse heart; given with hRFRP-1, tail-vein injection) | effect on cardiac function in vivo when applied alone (echocardiographic parameters) (mouse heart; tail-vein injection)
1 | CSCC[C@H](N)C(=O)N1CCC[C@H]1C(=O)N[C@@H](Cc1cnc[nH]1)C(=O)N[C@@H](CO)C(=O)N[C@@H](Cc1ccccc1)C(=O)N[C@@H](C)C(=O)N[C@@H](CC(N)=O)C(=O)N[C@@H](CC(C)C)C(=O)N1CCC[C@H]1C(=O)N[C@@H](CC(C)C)C(=O)N[C@@H](CCCNC(=N)N)C(=O)N[C@@H](Cc1ccccc1)C(N)=O [hRFRP-1] (H-MPHSFANLPLRF-NH2) | not observed |  |  | 
2 | LPLAFamide (LPLAF-NH2) |  | hRFRP-1 antagonist | blocked the effects of hRFRP-1 | slight increase in cardiac function; also recorded: enhances cardiac function
